Results on one compound are retold here after patent US20260174769A1, “MACROCYCLIC COMPOUNDS AND METHODS OF USE” (AMGEN INC., priority 2022, published 2026).

Assay [1] has as its system Phosphorylation of ERK1/2 in AsPC-1 cells. Description: Phospho-ERK1/2 MSD Assay. In kind it is cell-based, human. The following applies: Homo sapiens, ASPC1, 2 h, AsPC-1 cells, 2 h compound treatment; read-out: 2 h p-ERK (AsPC-1 cells), IC50.
Another assay concerns MIA PaCa-2 cells. Description: MIA PaCa-2 CTG Assay (CellTiter-Glo cell viability, 72 h). The class given is cell-based, human. The settings on record: Homo sapiens, second value of cell, read-out: G12D/C/V Cell Proliferation CTG (72 h) Mia PaCa-2. As for the experimental part: MIA PaCa-2 CTG Assay Protocol
(§1) Serially-diluted compound or DMSO was added to the cells, and plates were incubated at 37° C., 5% CO2 for 72 h. Cell viability was measured using a CellTiter-Glo® Luminescent Cell Viability Assay kit (Promega) according to the manufacturer's protocol. The luminescence signal of treated samples was normalized to DMSO control, and data were analyzed using a 4-parameter logistic model to calculate IC50 values.
In general terms: ATP-based viability assays read luminescence as a measure of living cells.

Another assay relates to AsPC-1 cells. Put plainly: AsPC-1 CTG Assay (CellTiter-Glo cell viability, 72 h). The class given is cell-based, human. The settings on record: Homo sapiens, ASPC1, 72 h, AsPC-1 cells, 72 h; first value of cell; read-out: G12D/C/V Cell Proliferation CTG (72 h) AsPC-1. On the procedure:
(§2) AsPC-1 and SW620 CTG Assay Protocols
as §1

A further assay relates to SW620 cells. Description: SW620 CTG Assay (CellTiter-Glo cell viability, 72 h). The class given is cell-based. The settings on record: Homo sapiens, SW-620, third value of cell, read-out: G12D/C/V Cell Proliferation CTG (72 h) SW620. On the procedure: as §2
as §1, with “AsPC-1 (human pancreatic adenocarcinoma; ATCC CRL-1682) or SW620 (human colon adenocarcinoma; ATCC CCL-227) cells were cultured in RPMI 1640 medium containing 10% fetal bovine serum and 1× penicillin/streptomycin/L-glutamine. Cells were seeded in 384-well plates at a density of 3.33E+04 cells/mL and incubated at 37° C., 5% CO2, overnight. Serially-diluted” for “Serially-diluted”

For the compound `Fc1c2ncc3c(nc(OC[C@@]45CCCN4C[C@H](F)C5)nc13)N1CCC[C@]3(C1)C[C@H](C3)OCCCCc1c(Cl)cc3[nH]ncc3c1-2` [Example 260, (1S,3R)-10-Chloro-32-fluoro-24-(((2R,7aS)-2-fluorotetrahydro-1H-pyrrolo[1,2-a]pyrrol-7a(5H)-yl)methoxy)-4-oxa-13,14,19,23,25,27-hexaazaheptacyclo[25.3.1.1˜1,3˜.1˜18,22˜.0˜9,17˜.0˜12,16˜.0˜21,26˜]tritriaconta-9,11,14,16,18(32),19,21,23,25-nonaene bis(2,2,2-trifluoroacetate)], the IC50 amounted to 3.2 nM in assay [1], 26 nM with MIA PaCa-2 cells, 40 nM with AsPC-1 cells and 8 nM with SW620 cells.
